Patent US11535632B2, “Solid forms of an S1P-receptor modulator” (ESCAPE Bio, Inc., priority 2019, dated 2022)
“Also recorded” adds a separate entry of the source.

What was measured:
Format in all cases: physicochemical
[1] = Competitive slurries of Form B and C in process relevant solvents
Procedure: Determination of the relative stabilities of Form B and Form C was undertaken to identify which material was more thermodynamically stable in process relevant solvents. As a suspected solvate was isolated from experiments where DMAC was used as a solvent, only DMSO and acetic acid were determined to be appropriate process solvents. Combinations of these solvents with relevant antisolvents were therefore selected for the competitive slurry experiments.
Compound 1 (from Example 2) was dispensed into HPLC vials. To these, 1 ml of selected solvents was subsequently added to give a suspension. Materials were slurried for 72 hours at 90° C., 50° C. or 25° C. with 500 rpm stirring. Material was subsequently isolated by centrifugation and analyzed by XRPD.

[2] = Gravimetric vapor sorption (GVS)
Procedure: Sorption isotherms were obtained using a SMS DVS Intrinsic moisture sorption analyzer, controlled by DVS Intrinsic Control software. The sample temperature was maintained at 25° C. by the instrument controls. The humidity was controlled by mixing streams of dry and wet nitrogen, with a total flow rate of 200 ml/min. The relative humidity was measured by a calibrated Rotronic probe (dynamic range of 1.0-100% RH), located near the sample. The weight change, (mass relaxation) of the sample as a function of % RH was constantly monitored by a microbalance (accuracy ±0.005 mg).
Typically, 5-30 mg of sample was placed in a tared mesh stainless steel basket under ambient conditions. The sample was loaded and unloaded at 40% RH and 25° C. (typical room conditions). A moisture sorption isotherm was performed as outlined below (2 scans per complete cycle). The standard isotherm was performed at 25° C. at 10% RH intervals over a 0-90% RH range. Typically, a double cycle (4 scans) was carried out. Data analysis was carried out within Microsoft Excel using the DVS Analysis Suite.

[3] = Room temperature equilibrium solubility in aqueous suspensions; conditions: listed as Compound 1, Form B; for Total drug in solution: room temperature equilibrium, HPLC of supernatant
[4] = Solid state stability study
From the text: The two lots of Compound 1 were characterized by HPLC, PLM, XRPD, DSC, TGA, and KF. […] According to the stability study at different conditions, the two forms of compound were practically stable at different humidity for at least 4 weeks, with no XRPD pattern change and no growth of impurities were found.

[5] = Storage for one week at controlled temperature/humidity, XRPD
Procedure: PLM images obtained of the particles show them to be a mixture of laths and larger aggregates typical of an uncontrolled antisolvent crystallization. A peak corresponding to 0.16 molar equivalents of acetic acid is present in the ^1H-NMR spectrum. […] It is evident from the corresponding DSC thermogram that this mass loss coincides with melting of the material (endotherm at 237.7° C.).

[6] = Variable temperature XRPD; conditions: heated in situ to 150° C. at 10° C./min; new form denoted Form E
Procedure: For variable temperature (VT-XRPD) experiments the samples were prepared and analysed in an Anton Paar chromed sample holder with silicon wafer insert. A heating/cooling rate of 10° C./min was used with a 2 min isothermal hold before the measurement started. The measurement parameters are as per the standard screening data collection method (detailed above). Measurements were taken at the following temperatures: 25° C., 150° C. and 25° C.
Compound 1 Form B was analyzed using the Empyrean XRPD at a temperature of 25° C. The sample was then heated in situ using the variable temperature stage to 150° C. at a ramp rate of 10° C./min and held isothermally for 2 minutes whereupon a second XRPD measurement was made. The sample was then cooled to 25° C. at a ramp rate of 10° C./min held isothermally for 2 minutes whereupon a third XRPD measurement was made.

[7] = Hygroscopicity evaluation by DVS at 25° C.
Procedure: Hygroscopicity of Compound 1, Form A and Compound 1, Form B was evaluated by DVS at 25° C.

SMILES: O=C(O)[C@H]1C[C@@H](N2CCc3oc(-c4ccc(OCc5ccc(Cl)cc5)cc4)nc3C2)C1 [Form B, (1s,3s)-3-(2-(4-((4-chlorobenzyl)oxy)phenyl)-6,7-dihydrooxazolo[4,5-c]pyridin-5(4H)-yl)cyclobutane-1-carboxylic acid]
- Relative thermodynamic stability ([1]; acetic acid mixtures and temperatures investigated): more thermodynamically stable than Form C
- Relative thermodynamic stability ([1]; majority of experimental conditions assessed): more thermodynamically stable than Form C
- XRPD post GVS analysis [2]: Unchanged by XRPD post analysis; also recorded: Sample unchanged by XRPD
- Relative humidity at which the monohydrate is stable ([2]; readily rehydrates after water loss): > 20 % RH
- Total drug in solution ([3]; 0.2% HPMC aqueous suspension): <1 µg/mL
- pH ([3]; 0.2% HPMC aqueous suspension): 6.7
- Total drug in solution ([3]; 0.25% SLS aqueous suspension): 7.8 µg/mL
- pH ([3]; 0.25% SLS aqueous suspension): 6.0
- Total drug in solution ([3]; 20% HP-BCD aqueous suspension): 74.2 µg/mL
- pH ([3]; 20% HP-BCD aqueous suspension): 6.1
- Crystallinity (XRPD & PLM) ([4]; 4 weeks, 25° C./60% RH): Crystalline
- Purity ([4]; 4 weeks, 25° C./60% RH): 99.55%
- Weight loss (TGA) (~120° C.) ([4]; 4 weeks, 25° C./60% RH): 2.374%
- Crystallinity (XRPD & PLM) ([4]; 4 weeks, 40° C./75% RH): Crystalline
- Purity ([4]; 4 weeks, 40° C./75% RH): 99.55%
- Weight loss (TGA) (~120° C.) ([4]; 4 weeks, 40° C./75% RH): 2.319%
- Crystallinity (XRPD & PLM) ([4]; 6 weeks, 25° C./60% RH): Crystalline
- Purity ([4]; 6 weeks, 25° C./60% RH): 99.54%
- Water content ([4]; 6 weeks, 25° C./60% RH): 3.361%
- Weight loss (TGA) (~120° C.) ([4]; 6 weeks, 25° C./60% RH): 2.364%
- Crystallinity (XRPD & PLM) ([4]; 6 weeks, 40° C./75% RH): Crystalline
- Purity ([4]; 6 weeks, 40° C./75% RH): 99.53%
- Water content ([4]; 6 weeks, 40° C./75% RH): 3.301%
- Weight loss (TGA) (~120° C.) ([4]; 6 weeks, 40° C./75% RH): 2.276%
- Crystallinity (XRPD & PLM) ([4]; 8 weeks, 25° C./60% RH): Crystalline
- Purity ([4]; 8 weeks, 25° C./60% RH): 99.54%
- Water content ([4]; 8 weeks, 25° C./60% RH): 3.830%
- Weight loss (TGA) (~120° C.) ([4]; 8 weeks, 25° C./60% RH): 2.943%
- Crystallinity (XRPD & PLM) ([4]; 8 weeks, 40° C./75% RH): Crystalline
- Purity ([4]; 8 weeks, 40° C./75% RH): 99.55%
- Water content ([4]; 8 weeks, 40° C./75% RH): 3.494%
- Weight loss (TGA) (~120° C.) ([4]; 8 weeks, 40° C./75% RH): 3.809%
- Crystallinity (XRPD & PLM) ([4]; Initial): Crystalline
- Purity ([4]; Initial): 99.54%
- Water content ([4]; Initial): 3.677%
- Weight loss (TGA) (~120° C.) ([4]; Initial): 2.233%
- XRPD after storage ([5]; 25° C./97% RH for one week): did not result in changes to material as measured by XRPD; also recorded: Unchanged by XRPD
- XRPD after storage ([5]; 40° C./75% RH for one week): did not result in changes to material as measured by XRPD; also recorded: Unchanged by XRPD
- XRPD after heating [6]: change in Form by XRPD
- DVS Desorp. (%) ([7]; 0% RH, 1st Desorp.): 0.01%
- DVS Sorp. (%) ([7]; 0% RH, 2nd Sorp.): 0.01%
- DVS Desorp. (%) ([7]; 10% RH, 1st Desorp.): 0.95%
- DVS Sorp. (%) ([7]; 10% RH, 2nd Sorp.): 0.65%
- DVS Desorp. (%) ([7]; 20% RH, 1st Desorp.): 1.03%
- DVS Sorp. (%) ([7]; 20% RH, 2nd Sorp.): 0.96%
- DVS Desorp. (%) ([7]; 30% RH, 1st Desorp.): 1.08%
- DVS Sorp. (%) ([7]; 30% RH, 2nd Sorp.): 1.00%
- DVS Desorp. (%) ([7]; 40% RH, 1st Desorp.): 1.14%
- DVS Sorp. (%) ([7]; 40% RH, 1st Sorp.): 1.09%
- DVS Desorp. (%) ([7]; 40% RH, 2nd Desorp.): 1.06%
- DVS Sorp. (%) ([7]; 40% RH, 2nd Sorp.): 1.03%
- DVS Desorp. (%) ([7]; 50% RH, 1st Desorp.): 1.18%
- DVS Sorp. (%) ([7]; 50% RH, 1st Sorp.): 1.10%
- DVS Desorp. (%) ([7]; 50% RH, 2nd Desorp.): 1.11%
- DVS Sorp. (%) ([7]; 50% RH, 2nd Sorp.): 1.06%
- DVS Desorp. (%) ([7]; 60% RH, 1st Desorp.): 1.21%
- DVS Sorp. (%) ([7]; 60% RH, 1st Sorp.): 1.14%
- DVS Desorp. (%) ([7]; 60% RH, 2nd Desorp.): 1.10%
- DVS Sorp. (%) ([7]; 60% RH, 2nd Sorp.): 1.09%
- DVS Desorp. (%) ([7]; 70% RH, 1st Desorp.): 1.26%
- DVS Sorp. (%) ([7]; 70% RH, 1st Sorp.): 1.18%
- DVS Desorp. (%) ([7]; 70% RH, 2nd Desorp.): 1.13%
- DVS Sorp. (%) ([7]; 70% RH, 2nd Sorp.): 1.12%
- DVS Desorp. (%) ([7]; 80% RH, 1st Desorp.): 1.28%
- DVS Sorp. (%) ([7]; 80% RH, 1st Sorp.): 1.22%
- DVS Desorp. (%) ([7]; 80% RH, 2nd Desorp.): 1.18%
- DVS Sorp. (%) ([7]; 80% RH, 2nd Sorp.): 1.17%
- DVS Desorp. (%) ([7]; 90% RH, 1st Desorp.): 1.33%
- DVS Sorp. (%) ([7]; 90% RH, 1st Sorp.): 1.29%
- DVS Desorp. (%) ([7]; 90% RH, 2nd Desorp.): 1.24%
- DVS Sorp. (%) ([7]; 90% RH, 2nd Sorp.): 1.22%
- DVS Desorp. (%) ([7]; 95% RH, 1st Desorp.): 1.38%
- DVS Sorp. (%) ([7]; 95% RH, 1st Sorp.): 1.38%
- DVS Desorp. (%) ([7]; 95% RH, 2nd Desorp.): 1.30%
- DVS Sorp. (%) ([7]; 95% RH, 2nd Sorp.): 1.30%
- Hygroscopicity based on DVS results ([7]; listed as Compound 1, Form B): slightly hygroscopic
- XRPD after DVS test ([7]; listed as Compound 1, Form B): no form change
